US8575094B2, “Use of type-B lantibiotic-based compounds having antimicrobial activity” (Novacta Biosystems Limited, priority 2007, dated 2013)
≈ marks a conversion by molar mass, not a printed value. Read-outs that look alike come from different tables or passages of the source.

Tests used:
[1] = Stability in Simulated Gastric Fluid (SGF), HPLC; type: in vitro ADME; conditions: 37° C.
Excerpt: (§1) The preferred method of dosage for the treatment of C. difficile infections is via the oral route of administration. […] Whilst the oral absorption of peptides and related substances of a molecular weight >1,000 Daltons is generally low, metabolism through peptidase enzymes is generally rapid and indeed forms an essential part of the normal digestion of food. The susceptibility of peptides towards enzymatic digestion in the stomach and intestine can reliably be estimated in vitro by measuring their stability in Simulated Gastric Fluid USP ([…], pepsin in saline, pH 1.2) and Simulated Intestinal Fluid USP (SIF, pancreatin in aqueous potassium dihydrogen phosphate, pH 6.8).
(§2) Nisin and mersacidin were tested for their susceptibility towards enzymatic digestion in the stomach and intestine. The SGF and SIF were based on the standard USP solutions for simulated gastric and simulated intestinal fluids and their activity confirmed against Bovine Serum Albumin (Hilger et al, 2001). The compounds were incubated in SGF or SIF at 37° C. and their concentrations quantified by analytical HPLC (UV detection at 210 nm). The potential degradation of each compound was also monitored qualitatively by measuring in vitro antibacterial activity against Micrococcus luteus.

[2] = Stability in Simulated Intestinal Fluid (SIF), HPLC; type: in vitro ADME; conditions: 37° C.
Excerpt: as §1, §2

Micrococcus luteus = test: In vitro antibacterial activity against Micrococcus luteus during SGF/SIF incubation; type: cell-based; conditions: incubation in SGF or SIF at 37° C.
Procedure: as §2

C. difficile spores = test: Sporicidal activity: viable counts of C. difficile spores exposed to antibiotics; type: cell-based; conditions: for Viable counts of C. difficile spores: antibiotic at 100 µg/ml
Excerpt: An agent capable of killing, or preventing the successful germination of C. difficile spores would therefore be of considerable interest. To determine the effects of type B lantibiotics on C. difficile spores, suspensions of spores were exposed to antibiotics ([…]) and aliquots were taken at appropriate time points. The spores in each aliquot were filtered off and plated out on to Brazier's agar.

Clostridium difficile = test: microbe, parasite or virus in culture; type: cell-based; conditions: for MIC: Clostridioides difficile, read-out: Minimal Inhibitory Concentration (MIC)
Excerpt: Compounds I to VII were screened against twelve clinical isolates of Clostridium difficile.
In addition, compounds L to LIII were screened against […] isolates of Clostridium difficile.

[3] = system: C. difficile strain VPI 10463; type: in vivo; conditions: hamster, three times daily at 50 mg/kg/day, 5-day dosing period
Procedure: The in vivo efficacy of two type B Lantibiotics in the treatment of C. difficile infections was evaluated in the standard animal model for CDAD: clindamycin-induced cecitis in hamster (FIG. 3). Four groups of six animals were dosed orally with approximately 10^7 cells of C. difficile strain VPI 10463 and 24 hours later with a subcutaneous dose of 10 mg/kg clindamycin phosphate.

[4] = system: Bifidobacterium adolescentis NCTC 11814
[5] = system: Bifidobacterium longum NCTC 11818
[6] = system: Bacteroides fragilis NCTC 9343
[7] = system: Bacteroides thetaiotaomicron NCTC 10582
C. difficile 630 = conditions: hamster, three times daily at 50 mg/kg/day for 5 days, groups of 6
Procedure: The in vivo efficacy of compound VII in the treatment of C. difficile infections was evaluated in the clindamycin-induced cecitis model in hamster (FIG. 4). Groups of 6 animals were given a subcutaneous dose of 10 mg/kg clindamycin phosphate. 24 hours later, the animals received oral inocula of ˜10^4 spores of C. difficile 630, prepared by heating overnight BHI culture fluids to 56° C. for 10 min and recovering spores by centrifugation and re-suspension of the pellet in an equal volume of PBS.

[8] = rat, 100 mg/kg oral
Procedure: Male Sprague-Dawley rats were dosed with compound VII at 100 mg/kg via the oral route. Faeces and urine were collected over a 48 h period in two batches (24 h and 48 h post dose). Blood samples were taken at various time points for the first 24 h.

C=C1NC(=O)[C@@H]2NC(=O)[C@H](CC(C)C)NC(=O)[C@H](NC(=O)[C@@H]3CS[C@@H](C)[C@@H](NC(=O)[C@H](Cc4ccccc4)NC(=O)[C@@H]4NC(=O)[C@@H](N)CS[C@H]4C)C(=O)N[C@@H](CC(C)C)C(=O)N4CCC[C@H]4C(=O)NCC(=O)NCC(=O)NCC(=O)NCC(=O)N[C@@H](C(C)C)C(=O)N3)[C@H](C)SC[C@H](NC(=O)[C@H](CCC(=O)O)NC1=O)C(=O)N[C@@H]([C@@H](C)CC)C(=O)N/C=C\S[C@H]2C [Compound I, Mersacidin]
Stability (degradation) in Simulated Gastric Fluid [1]: None of the compounds showed appreciable degradation
Stability (degradation) in Simulated Intestinal Fluid [2]: essentially stable
In vitro activity against M. luteus during the course of the experiment (Micrococcus luteus): remained unaltered
Effect on C. difficile spore viability / germination (C. difficile spores): inactivate or prevent C. difficile spores from germinating
Viable counts of C. difficile spores (C. difficile spores; time 0 h): 177
Viable counts of C. difficile spores (C. difficile spores; time 4 h): 0
Viable counts of C. difficile spores (C. difficile spores; time 8 h): 0
Viable counts of C. difficile spores (C. difficile spores; time 24 h): 0

C=C1NC(=O)[C@@H]2NC(=O)[C@H](CC(C)C)NC(=O)[C@H](NC(=O)[C@@H]3CS[C@@H](C)[C@@H](NC(=O)[C@H](Cc4c[nH]c5ccccc45)NC(=O)[C@@H]4NC(=O)[C@@H](N)CS[C@H]4C)C(=O)N[C@@H](CC(C)C)C(=O)N4CCC[C@H]4C(=O)NCC(=O)NCC(=O)NCC(=O)NCC(=O)N[C@@H](C(C)C)C(=O)N3)[C@H](C)SC[C@H](NC(=O)[C@H](CCC(=O)O)NC1=O)C(=O)N[C@@H](C(C)CC)C(=O)N/C=C\S[C@H]2C (stereo partly shown) [Compound IV, F3W Mersacidin]
Minimal Inhibitory Concentration (MIC) (Clostridium difficile): 2 µg/mL
Survival of infected animals [3]: survived for the duration of the entire 5-day dosing period
Minimal Inhibitory Concentration (MIC) (E. coli): >64 µg/mL
Minimal Inhibitory Concentration (MIC) (E. faecium): 32 µg/mL
Minimal Inhibitory Concentration (MIC) [4]: 32 µg/mL
Minimal Inhibitory Concentration (MIC) [5]: 16 µg/mL
Minimal Inhibitory Concentration (MIC) [6]: 32 µg/mL
Minimal Inhibitory Concentration (MIC) [7]: 16 µg/mL

CC[C@H](C)[C@@H]1NC(=O)[C@H](C(C)C)NC(=O)[C@@H]2NC(=O)CNC(=O)[C@@H]3CS[C@@H](C)[C@@H](NC(=O)[C@@H]4CSC[C@@H](N)C(=O)N[C@@H](CO)C(=O)NCC(=O)N[C@@H](Cc5c[nH]c6ccccc56)C(=O)N[C@@H](C(C)C)C(=O)N4)C(=O)N[C@@H](CC(C)C)C(=O)N[C@@H](C(=O)N[C@@H]([C@@H](C)CC)C(=O)N[C@@H](CCC(=O)O)C(=O)N3)[C@H](C)SC[C@H](NC1=O)C(=O)N[C@@H](C)C(=O)N[C@H](C(=O)NCCO)C[S+]([O-])[C@H]2C (stereo partly shown) [Compound VI, Actagardine N-[2-ethanolamine] monocarboxamide]
Stability (degradation) in Simulated Gastric Fluid [1]: None of the compounds showed appreciable degradation
Stability (degradation) in Simulated Intestinal Fluid [2]: essentially stable
Survival of infected animals [3]: survived for the duration of the entire 5-day dosing period

CC[C@H](C)[C@@H]1NC(=O)[C@@H]2NC(=O)[C@H](CC(C)C)NC(=O)[C@H](NC(=O)[C@@H]3CSC[C@@H](N)C(=O)N[C@@H](CO)C(=O)NCC(=O)N[C@@H](Cc4c[nH]c5ccccc45)C(=O)N[C@@H](C(C)C)C(=O)N3)[C@H](C)SC[C@H](NC(=O)[C@H](CCC(=O)O)NC1=O)C(=O)NCC(=O)N[C@H]1C(=O)N[C@@H](CC(C)C)C(=O)N[C@@H](C(C)C)C(=O)N[C@@H](CS[C@H]2C)C(=O)N[C@@H](C)C(=O)N[C@H](C(=O)NCCO)CS[C@H]1C [Compound VII, Deoxy-actagardine B N-[2-ethanolamine] monocarboxamide]
Stability (degradation) in Simulated Gastric Fluid [1]: None of the compounds showed appreciable degradation
Survival of infected animals (C. difficile 630): all 6 of the infected mice survived
Material recovered from plasma [8]: No material was recovered
Material recovered from urine ([8]; urine collected over 48 h): No material was recovered

Cc1ncc([N+](=O)[O-])n1CCO [Metronidazole]
MIC (Clostridium difficile; C. difficile strain 027C): 0.25 µg/mL (≈ 1.46 µM)
MIC (Clostridium difficile; C. difficile strain 27SM): 0.125 µg/mL (≈ 0.73 µM)
MIC (Clostridium difficile; C. difficile strain 19126): 0.25 µg/mL (≈ 1.46 µM)
MIC (Clostridium difficile; C. difficile strain 37779): 0.125 µg/mL (≈ 0.73 µM)
MIC (Clostridium difficile; C. difficile strain B32): 0.125 µg/mL (≈ 0.73 µM)
MIC (Clostridium difficile; C. difficile strain E4): 0.25 µg/mL (≈ 1.46 µM)
MIC (Clostridium difficile; C. difficile strain E16): 8 µg/mL (≈ 46.7 µM)
MIC (Clostridium difficile; C. difficile strain E101): 0.125 µg/mL (≈ 0.73 µM)
MIC (Clostridium difficile; C. difficile strain P24): 0.25 µg/mL (≈ 1.46 µM)
MIC (Clostridium difficile; C. difficile strain P49): 0.125 µg/mL (≈ 0.73 µM)
MIC (Clostridium difficile; C. difficile strain P59): 0.25 µg/mL (≈ 1.46 µM)
MIC (Clostridium difficile; C. difficile strain P62): 0.25 µg/mL (≈ 1.46 µM)
Effect on C. difficile spore viability / germination (C. difficile spores): no significant effect on spore viability
Viable counts of C. difficile spores (C. difficile spores; time 0 h): 177
Viable counts of C. difficile spores (C. difficile spores; time 4 h): 154
Viable counts of C. difficile spores (C. difficile spores; time 8 h): 144
Viable counts of C. difficile spores (C. difficile spores; time 24 h): 120
